Measured values from patent US20250333381A1, “SOLID STATE FORMS” (AMGEN INC., priority 2024, published 2025).
≈ marks a conversion by molar mass, not a printed value. Entries after “also recorded” stand apart in the source; their conditions may differ. Structures can show the parent of a compound that is named as a salt. Values belong to the compound of their own block, whether it stands above or below them.

Assays:
HS patients = conditions: vs. placebo, pre-specified Hurley Stage III (severe HS) patients, 12 weeks; cited from earlier work
C3G patients = conditions: compared to placebo, 26 weeks of blinded treatment; cited from earlier work
[1] = Solubility in FaSSIF (shake 2 hr, HPLC); assay type: physicochemical; conditions: for Solubility: 2 h
Experimental: Solubility: Samples were prepared by adding ˜10 mg of the solid to a small centrifuge tube followed by the addition of 1.75 mL freshly prepared FaSSIF solution. The pH of each suspension was measured prior to shaking the samples in an Eppendorf ThermoMixer F1.5 at 37° C. and 1500 rpm for 2 hr. The samples were centrifuged, and the pH of each suspension was measured again at the T=2 hr timepoint. The samples were filtered through Millex 0.20 μm PTFE syringe filters and the filtrates were diluted by a factor of 2 with acetonitrile. Solubility samples were prepared in duplicate. […] The samples were analyzed by HPLC using the method parameters described in the table below. [table] […] The samples were analyzed by HPLC using the method parameters described in the table below. [table]

[2] = Dynamic Vapor Sorption (DVS), hygroscopicity; assay type: physicochemical; conditions: 25° C., 0% RH-90% RH-0% RH
Experimental: Dynamic Vapor Sorption (DVS): Water sorption data were collected using a DVS Adventure dynamic vapor sorption analyzer (Surface Measurement Systems). The relative humidity at 25° C. was calibrated against the deliquescence point of LiCl, Mg(NO3)2 and KCl. Approximately 5-15 mg were loaded onto a tared metal pan. Data were collected from 0 to 90 to 0% RH in 5% increments at 25° C. Progression to the next stage occurred when the change in mass with respect to time was less than 0.002 per minute or after 180 minutes, whichever occurred first. The minimum stage time was 10 minutes. [table]

[3] = Dissolution profiles, PION MicroDiss (FIG. 16); assay type: physicochemical; conditions: FaSSIF + 0.2% Tween 80, ~37° C.; for Rate and extent of dissolution: compared to amorphous free base
Experimental: Dissolution profiles were generated comparing the free base anhydrous crystalline form of Compound A, the amorphous free base form of Compound A, the crystalline HCl salt form of Compound A, and the crystalline HBr salt form of Compound A. The dissolution profiles were obtained by employing a PION MicroDiss profiler equipped with Rainbow […] 8-channel in-situ fiber optic UV-vis spectrometer, heating blocks and magnetic stirrers. Dissolution media was equilibrated at 37° C. using Thermo Neslab RTE 7 recirculating chiller prior to addition of samples. Calibration standards were prepared by serial dilution from a methanol stock solution at 12 levels spanning concentrations 0-38 μg/mL. Samples were analyzed simultaneously in duplicate using the parameters described in the table below. [table]

[4] = Solid form screen: thermodynamic stability and form conversion; assay type: physicochemical; conditions: for Thermodynamic stability among crystalline forms: screening process of the HCl and HBr salts; for Form conversion upon heating: heating (under vacuum)
Experimental: A solid form screen of HCl and HBr salts of Compound A was conducted. Crystalline salt forms of Compound A were identified, including a crystalline HCl salt form, a crystalline toluene solvate of a crystalline HCl salt form (also referred to herein an HCl salt toluene solvate form of Compound A), a crystalline HBr salt form, a crystalline toluene solvate of a crystalline HBr salt form (also referred to herein an HBr salt toluene solvate form of Compound A). Amorphous salt forms of Compound A were also identified, including an amorphous HCl salt form and an amorphous HBr salt form.
Further, the DV S data of both crystalline HCl and HBr salts form of Compound A indicate that these two materials are non-hygroscopic.

[5] = Dissolution profiles vs Napsylate, Tosylate, Besylate salt forms (FIGS. 35(a), 35(b)); assay type: physicochemical; conditions: for Cmax of dissolution profile: Besylate salts
Excerpt: (§1) FIGS. 35(a) and 35(b) show dissolution profiles of crystalline HCl Form 1 of Compound A of this disclosure compared to Napsylate, Tosylate, and Besylate salt forms of Compound A. The concentrations of the salts used are roughly double in FIG. 35(b) than in FIG. 35(a).
as §1, with “A. Besylate, Tosylate Napsylate salt forms of Compound A were prepared as described in WO 2021/092295.” for “A.”

Structure (SMILES): Cc1ccc(NC(=O)[C@H]2CCCN(C(=O)c3c(C)cccc3F)[C@H]2c2ccc(NC3CCCC3)cc2)cc1C(F)(F)F [Compound A, (2R,3S)-2-(4-(cyclopentylamino)phenyl)-1-(2-fluoro-6-methylbenzoyl)-N-(4-methyl-3-(trifluoromethyl)phenyl)piperidine-3-carboxamide]
HiSCR (Hidradenitis Suppurativa Clinical Response) (HS patients): statistically significant dose-dependent improvement in HiSCR
Renal function as measured by eGFR (C3G patients): statistically significant improvement in renal function

Structure (SMILES): Cc1ccc(NC(=O)[C@H]2CCCN(C(=O)c3c(C)cccc3F)[C@H]2c2ccc(NC3CCCC3)cc2)cc1C(F)(F)F [Crystalline HBr salt form, (2R,3S)-2-(4-(cyclopentylamino)phenyl)-1-(2-fluoro-6-methylbenzoyl)-N-(4-methyl-3-(trifluoromethyl)phenyl)piperidine-3-carboxamide]
Solubility relative to Besylate, Tosylate and Napsylate forms [1]: significantly more soluble
Hygroscopicity (DVS) [2]: non-hygroscopic
Rate and extent of dissolution ([3]; listed as crystalline HBr salt form of Compound A): performed similar in terms of rate and extent of dissolution to the amorphous form of avacopan
Thermodynamic stability among crystalline forms [4]: most thermodynamically stable crystalline forms identified in the screening process

Structure (SMILES): Cc1ccc(NC(=O)[C@H]2CCCN(C(=O)c3c(C)cccc3F)[C@H]2c2ccc(NC3CCCC3)cc2)cc1C(F)(F)F [Crystalline HCl salt form, (2R,3S)-2-(4-(cyclopentylamino)phenyl)-1-(2-fluoro-6-methylbenzoyl)-N-(4-methyl-3-(trifluoromethyl)phenyl)piperidine-3-carboxamide]
Tmax of dissolution profile ([5]; Besylate salt forms): higher than the Napsylate, Tosylate, and Besylate salt forms of Compound A
Cmax of dissolution profile ([5]; FaSSGF+0.2% tween 80 (pH 1.2)): highest Cmax of all salts
Cmax of dissolution profile ([5]; FaSSIF+0.2% tween 80 (pH 6.5)): highest Cmax of all salts
Solubility relative to Besylate, Tosylate and Napsylate forms [1]: significantly more soluble
Hygroscopicity (DVS) [2]: non-hygroscopic
Rate and extent of dissolution ([3]; listed as crystalline HCl salt form of Compound A): follows very closely
Cmax of dissolution profile ([3]; compared to crystalline HBr salt and amorphous form): lesser Cmax
Thermodynamic stability among crystalline forms [4]: most thermodynamically stable crystalline forms identified in the screening process

Structure (SMILES): Cc1ccc(NC(=O)[C@H]2CCCN(C(=O)c3c(C)cccc3F)[C@H]2c2ccc(NC3CCCC3)cc2)cc1C(F)(F)F [HBr salt toluene solvate form of Compound A] [(2R,3S)-2-(4-(cyclopentylamino)phenyl)-1-(2-fluoro-6-methylbenzoyl)-N-(4-methyl-3-(trifluoromethyl)phenyl)piperidine-3-carboxamide]
Form conversion upon heating [4]: convert to the respective HBr and HCl crystalline salt forms of Compound A upon heating; also recorded: converts to the HCl crystalline salt form of Compound A upon heating under vacuum from about 100 °C to about 125 °C from about 4 to about 24 hours

Structure (SMILES): Cc1ccc(NC(=O)[C@H]2CCCN(C(=O)c3c(C)cccc3F)[C@H]2c2ccc(NC3CCCC3)cc2)cc1C(F)(F)F [HCl salt toluene solvate form of Compound A] [(2R,3S)-2-(4-(cyclopentylamino)phenyl)-1-(2-fluoro-6-methylbenzoyl)-N-(4-methyl-3-(trifluoromethyl)phenyl)piperidine-3-carboxamide]
Form conversion upon heating [4]: convert to the respective HBr and HCl crystalline salt forms of Compound A upon heating; also recorded: converts to the HCl crystalline salt form of Compound A upon heating under vacuum at about 60 °C for about 2 hours

The next lines start with the values.

Solubility [1]: 19.44 µg/mL (≈ 33.4 µM)
Structure (SMILES): Cc1ccc(NC(=O)[C@H]2CCCN(C(=O)c3c(C)cccc3F)[C@H]2c2ccc(NC3CCCC3)cc2)cc1C(F)(F)F [Free Base Amorphous Form, (2R,3S)-2-(4-(cyclopentylamino)phenyl)-1-(2-fluoro-6-methylbenzoyl)-N-(4-methyl-3-(trifluoromethyl)phenyl)piperidine-3-carboxamide, reference compound]

Solubility [1]: 1.71 µg/mL (≈ 2.94 µM)
Structure (SMILES): Cc1ccc(NC(=O)[C@H]2CCCN(C(=O)c3c(C)cccc3F)[C@H]2c2ccc(NC3CCCC3)cc2)cc1C(F)(F)F [Free Base Anhydrous Crystalline Form, (2R,3S)-2-(4-(cyclopentylamino)phenyl)-1-(2-fluoro-6-methylbenzoyl)-N-(4-methyl-3-(trifluoromethyl)phenyl)piperidine-3-carboxamide, reference compound]
